Data as given in US20030082752A1, “Enzymatic process for producing GDP-alpha-D-mannose, a GDP mannose pyrophosphorylase and phosphomannomutase suitable for that process, the extraction of the said enzymes, and an enzyme test” (priority 1995, published 2003).
Read-outs that look alike come from different tables or passages of the source.

Key:
[1] = tested on: pyrophosphorylases in Escherichia coli BL21(DE3)pLysSpERJ-1 raw extract; assay: NUSSA screening of pyrophosphorylases in E. coli raw extract; format: biochemical; conditions: 20 μg/mL raw extract
Method: (§1) The total volume was 200 μL.
2) Example: Use of NUSSA for screening pyrophoshorylases in two different enzyme sources: a) Escherichia coli BL21(DE3)pLysSpERJ-1
(§2) For using the test, the PPIPFK has to be purified. As a simple and easily available enzyme source, potatoes were selected (Solanum tuberosum L.) . The purification was carried out according to the method described by van Schaftingen et al., 1982 in Eur. J. Biochem., Vol. 129, pp. 191-195. The enzyme (PPIPFK) was stored in 25% glycerin at -20° C.
(§3) Escherichia Coli BL21(DE3)pLysSpERJ-1 was cultured and broken up as described above. The resulting raw homogenate was centrifuged at 10,000 rpm for 2 min, and at 20° C., then used in the enzyme test (21.02 mg/mL). The rice was broken up according to Elling, 1993, German Patent DE 4,221,595 Cl, at 10,000 rpm, 10 min, 20° C., and it was used as a raw extract (4.26 mg/mL) in the enzyme screening. The substrates tested were: […]
(§4) a) Nucleoside triphosphate: ATP, CTP, GTP, UTP, dTTP, each at 1 mM in the test with glucose-1-phosphate (2.5 mM) b) Nucleoside triphosphate UTP (1 mM)
(§5) Sugar-1-phosphate, each at 2.5 mM in the test

[2] = tested on: pyrophosphorylases in rice (Oryza sativa L.) raw extract; assay: NUSSA screening of pyrophosphorylases in rice raw extract; format: biochemical
Method: as §1
2) Example: Use of NUSSA for screening pyrophoshorylases in two different enzyme sources: b) Rice (Oryza sativa L.)
as §2, §3, §4, §5

[3] = target: T1, GDP-mannose pyrophosphorylase (Salmonella typhimurium, UniProt P26404); format: biochemical, Salmonella enterica, group B; conditions: for kmax value: GTP varied at 0.08 mM M-1-P, M-1-P varied at 2 mM GTP
T1 construct: made in house; host or cells: Escherichia coli BL21(DE3)pLysS with pERJ-1 (pT7-6/rfbM)
T1 sequence (P26404 whole entry): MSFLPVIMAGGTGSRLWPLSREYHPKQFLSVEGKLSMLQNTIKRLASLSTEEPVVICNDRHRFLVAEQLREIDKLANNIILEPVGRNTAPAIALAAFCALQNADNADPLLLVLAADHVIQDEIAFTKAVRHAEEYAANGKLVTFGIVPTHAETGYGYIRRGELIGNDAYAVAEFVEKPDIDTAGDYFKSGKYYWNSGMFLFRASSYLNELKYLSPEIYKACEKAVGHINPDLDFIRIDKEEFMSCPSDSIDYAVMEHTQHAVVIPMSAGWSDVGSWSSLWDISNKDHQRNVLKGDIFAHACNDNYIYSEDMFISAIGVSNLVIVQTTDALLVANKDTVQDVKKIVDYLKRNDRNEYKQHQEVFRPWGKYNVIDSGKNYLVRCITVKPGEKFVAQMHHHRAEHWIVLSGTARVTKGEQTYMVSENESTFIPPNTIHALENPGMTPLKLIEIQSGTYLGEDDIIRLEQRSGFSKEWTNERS
Method: (§6) GTP was used at concentrations of 0.01-10 mM (FIG. 7).
b) Nucleoside triphosphate: GTP
Sugar-1-phosphates: Glucose-1-P, N-acetylglucosamine-1-P-, glucosamine-1-P, galactose-1-P, galactosamine-1-P, N-acetylgalactosamine-1-P, glucuronic acid-1-P, galacturonic acid-1-P, xylose-1-P, mannose-1-P
as §1

[4] = target: Salmonella enterica group B (formerly Salmonella typhimurium LT2) GDP-mannose pyrophosphorylase (rfb M, EC 2.7.7.13), recombinant from E. coli BL21(DE3)pLysSpER (Salmonella typhimurium, UniProt P26404)
Sequence of Salmonella enterica group B (formerly Salmonella typhimurium LT2) GDP-mannose pyrophosphorylase (rfb M, EC 2.7.7.13), recombinant from E. coli BL21(DE3)pLysSpER (P26404 whole entry): as above
Method: as §6, §1

[5] = target: Salmonella enterica group B (formerly Salmonella typhimurium LT2) GDP-mannose pyrophosphorylase (rfb M, EC 2.7.7.13), recombinant from E. coli BL21(DE3)pLysSpERJ-1 (Salmonella typhimurium, UniProt P26404); assay: biochemical
Sequence of Salmonella enterica group B (formerly Salmonella typhimurium LT2) GDP-mannose pyrophosphorylase (rfb M, EC 2.7.7.13), recombinant from E. coli BL21(DE3)pLysSpERJ-1 (P26404 whole entry): as above
From the text: (§7) In the manner described below, it is possible to determine, by the use of the substrates (sugar-1-phosphates or sugar in the case of neuraminic acid) and nucleoside triphosphates any pyrophosphorylase activity which presents an activity in the test mixture of≧0.2 mU/mL.
The enzyme test (Nucleotidyl transferase substrate screening assay ‘NUSSA’) is based on the fact that in the nucleotidyl transferase reaction (EC 2.7-7), pyrophosphate is produced with a pyrophosphate-dependent phosphofructokinase (PPiPFK from plants or bacteria EC 2.7.1.90) with fructose-6-phosphate and in the presence of fructose-2,6-diphosphate to make fructose-1,6-diphosphates. This product is cleaved with an aldolase to form dihydroxyacetone phosphate (DHAP) and glycerin-3-phosphate (GAP). From glycerinaldehyde-3-phosphate, dihydroxyacetone phosphate is produced with the triose phosphate isomerase. Finally, dihydroxyacetone phosphate is reduced with glycerin-3-phosphate dehydrogenase to glycerin-3-phosphate (G-3-P) with NADH. 2 mol of NADH are used per mol of pyrophosphate; this consumption can be monitored by photometry.
3) Influence of GDP-mannose on the synthesis
The concentration of GTP was varied between 0.08mM and 6 mm.
The GDP-mannose was used at 0μM, 50 μM, and 100 μM in the test. […]
(§8) The total volume was 200 μL. The preparations were measured in a Titertek photometer molecular device, Munich, by photometry. […]

[6] = tested on: O=P(O)(O)O[C@H]1O[C@H](CO)[C@@H](O)[C@H](O)[C@@H]1O; assay: purified protein, by the assay type; conditions: other: mannose-1-phosphate 0.002-0.6 mM, GTP constant 2 mM, NUSSA, Tris-HCl pH 8
[7] = tested on: Nc1nc2c(ncn2[C@@H]2O[C@H](COP(=O)(O)OP(=O)(O)OP(=O)(O)O)[C@@H](O)[C@H]2O)c(=O)[nH]1; assay: purified protein, by the assay type; conditions: other: GTP 0.01-10 mM, mannose-1-phosphate constant 0.08 mM, NUSSA, Tris-HCl pH 8
From the text: as §7
The enzyme test (Nucleotidyl transferase substrate screening assay ‘NUSSA’) is based on the fact that in the nucleotidyl transferase reaction (EC 2.7-7), pyrophosphate is produced with a pyrophosphate-dependent phosphofructokinase (PPiPFK from plants or bacteria EC 2.7.1.90) with fructose-6-phosphate and in the presence of fructose-2,6-diphosphate to make fructose-1,6-diphosphates. This product is cleaved with an aldolase to form dihydroxyacetone phosphate (DHAP) and glycerin-3-phosphate (GAP). From glycerinaldehyde-3-phosphate, dihydroxyacetone phosphate is produced with the triose phosphate isomerase. Finally, dihydroxyacetone phosphate is reduced with glycerin-3-phosphate dehydrogenase to glycerin-3-phosphate (G-3-P) with NADH. 2 mol of NADH are used per mol of pyrophosphate; this consumption can be monitored by photometry. [drawing 3]
GTP was used at concentrations of 0.01-10 mM (FIG. 7). […]
as §8

[8] = literature, cited from earlier work
[9] = α-D-sugar-1-phosphate 2.5 mM with UTP 1 mM
[10] = NTP 1 mM with α-D-glucose-1-phosphate 2.5 mM
[11] = NTP 1 mM with α-D-glucose-1-phosphate 2.5 mM, 1.06 μg/mL-0.14 mg/mL raw extract
[12] = α-D-sugar-1-phosphate 2.5 mM with GTP 1 mM

CC(=O)N[C@H]1[C@@H](OP(=O)(O)O)O[C@H](CO)[C@@H](O)[C@@H]1O [α-D-GlcNAc-1, N-acetylglucosamine-1-P-]
Specific activity of pyrophosphorylases, E. coli [1, 9]: 2.02 mU/mg | Specific activity of pyrophosphorylases, rice [2, 9]: 0.27 mU/mg

O=C(O)[C@H]1O[C@H](OP(=O)(O)O)[C@H](O)[C@@H](O)[C@H]1O [α-D-Galacrurons{overscore (a)}ure-1-P, α-D-Galacturonic acid-1-P]
Specific activity of pyrophosphorylases, E. coli [1, 9]: 3.66 mU/mg | Specific activity of pyrophosphorylases, rice [2, 9]: 2.94 mU/mg

O=P(O)(O)O[C@H]1OC[C@@H](O)[C@H](O)[C@H]1O [α-D-Xylose-1-P]
Specific activity of pyrophosphorylases, rice [2, 9]: 0.42 mU/mg

N[C@H]1[C@@H](OP(=O)(O)O)O[C@H](CO)[C@H](O)[C@@H]1O [α-D-Galactosamin-1-P]
Specific activity of pyrophosphorylases, rice [2, 9]: 0.25 mU/mg

CC(=O)N[C@H]1[C@@H](OP(=O)(O)O)O[C@H](CO)[C@H](O)[C@@H]1O [α-D-GalNAc-1-P, N-acetylgalactosamine-1-P]
Specific activity of pyrophosphorylases, rice [2, 9]: 0.18 mU/mg

O=c1ccn([C@@H]2O[C@H](COP(=O)(O)OP(=O)(O)OP(=O)(O)O)[C@@H](O)[C@H]2O)c(=O)[nH]1 [UTP]
Specific activity of pyrophosphorylases, E. coli [1, 10]: 214.10 mU/mg | Specific activity of pyrophosphorylases, rice [2, 11]: 982.40 mU/mg

O=P(O)(O)O[C@H]1O[C@H](CO)[C@@H](O)[C@H](O)[C@@H]1O [M-1-P, mannose-1-phosphate]
kmax value [3]: 1.8 U/mg | Specific activity of pyrophosphorylases, E. coli [1, 12]: 3.41 mU/mg | kmax value (M-1-P) ([4]; vmax, mannose-1-phosphate 0.002-0.6 mM, GTP constant 2 mM, NUSSA, Tris-HCl pH 8): 1.8 U/mg | Specific activity of pyrophosphorylases, rice [2, 12]: 1.51 mU/mg

N[C@H]1[C@H](OP(=O)(O)O)O[C@H](CO)[C@@H](O)[C@@H]1O [α-D-Glucosamin-1-P, α-D-Glucosamine-1-P]
Specific activity of pyrophosphorylases, E. coli [1, 9]: 2.75 mU/mg

O=P(O)(O)O[C@H]1O[C@H](CO)[C@H](O)[C@H](O)[C@H]1O [α-D-Galactose-1-P]
Specific activity of pyrophosphorylases, E. coli [1, 9]: 1 mU/mg | Specific activity of pyrophosphorylases, rice [2, 9]: 10.41 mU/mg

Nc1ncnc2c1ncn2[C@@H]1O[C@H](COP(=O)(O)OP(=O)(O)OP(=O)(O)O)[C@@H](O)[C@H]1O [ATP]
Specific activity of pyrophosphorylases, E. coli [1, 10]: 2.76 mU/mg

Nc1ccn([C@@H]2O[C@H](COP(=O)(O)OP(=O)(O)OP(=O)(O)O)[C@@H](O)[C@H]2O)c(=O)n1 [CTP]
Specific activity of pyrophosphorylases, E. coli [1, 10]: 0.75 mU/mg

O=C(O)[C@H]1O[C@H](OP(=O)(O)O)[C@H](O)[C@@H](O)[C@@H]1O [α-D-Glucurons{overscore (a)}ure-1-P, α-D-Glucuronic acid-1-P]
Specific activity of pyrophosphorylases, E. coli [1, 9]: 4.72 mU/mg | Specific activity of pyrophosphorylases, rice [2, 9]: 14.27 mU/mg

Nc1nc2c(ncn2[C@@H]2O[C@H](COP(=O)(O)OP(=O)(O)OP(=O)(O)O)[C@@H](O)[C@H]2O)c(=O)[nH]1 [GTP]
kmax value [3]: 2.4 U/mg | kmax value (GTP) ([4]; pH 8): 2.4 U/mg

Nc1nc2c(ncn2[C@@H]2O[C@H](COP(=O)(O)OP(=O)(O)O[C@H]3O[C@H](CO)[C@@H](O)[C@H](O)[C@@H]3O)[C@@H](O)[C@H]2O)c(=O)[nH]1 [GDP-mannose, GDP-alpha-D-mannose]
Ki [5]: 14.9 µM | Ki ([5]; Ki value, noncompetitive inhibition with respect to M-1-P, mannose-1-phosphate 0.003-0.3 mM, GTP constant 2 mM, 5.67 μg/mL enzyme): 118 µM | type of inhibition with respect to M-1-P ([3]; GTP constant 2 mM, M-1-P 0.003-0.3 mM): noncompetitive inhibition | type of inhibition with respect to GTP ([3]; M-1-P constant 0.08 mM, GTP 0.08-6 mM): competitive inhibition

Salmonella enterica group B (formerly Salmonella typhimurium LT2) GDP-mannose pyrophosphorylase (rfb M, EC 2.7.7.13), recombinant from E. coli BL21(DE3)pLysSpERJ-1 (Salmonella enterica subsp. enterica serovar Typhimurium str. LT2)
Km [6]: 0.01 mm mm | Km [7]: 0.2 mM mM

Cc1cn([C@H]2C[C@H](O)[C@@H](COP(=O)(O)OP(=O)(O)OP(=O)(O)O)O2)c(=O)[nH]c1=O [dTTP]
Specific activity of pyrophosphorylases, E. coli [1, 10]: 10.32 mU/mg | Specific activity of pyrophosphorylases, rice [2, 11]: 5.98 mU/mg

B1: Pseudomonas aeruginosa (Shinabarger et al 1991): Bifunctional GDP-Man-PP from Pseudomonas aeruginosa with phosphomannose isomerase and pyrophosphorylase activity (protein, UniProt P07874 1-481, looked up)
Alginate biosynthesis protein …: MIPVILSGGSGSRLWPLSRKQYPKQFLALTGDDTLFQQTIKRLAFDGMQAPLLVCNKEHRFIVQEQLEAQNLASQAILLEPFGRNTAPAVAIAAMKLVAEGRDELLLILPADHVIEDQRAFQQALALATNAAEKGEMVLFGIPASRPETGYGYIRASADAQLPEGVSRVQSFVEKPDEARAREFVAAGGYYWNSGMFLFRASRYLEELKKHDADIYDTCLLALERSQHDGDLVNIDAATFECCPDNSIDYAVMEKTSRACVVPLSAGWNDVGSWSSIWDVHAKDANGNVTKGDVLVHDSHNCLVHGNGKLVSVIGLEDIVVVETKDAMMIAHKDRVQDVKHVVKDLDAQGRSETQNHCEVYRPWGSYDSVDMGGRFQVKHITVKPGARLSLQMHHHRAEHWIVVSGTAQVTCDDKTFLLTENQSTYIPIASVHRLANPGKIPLEIIEVQSGSYLGEDDIERLEDVYGRTAEPALQVVAGSR
Specific activity after purification ([8]; after purification): 6.12 U/mg Protein | Specific activities Raw extract ([8]; raw extract): 0.397 U/mg Protein
